Laboratory results from ChEMBL document CHEMBL5608113, “Targeting of CAF-induced therapy resistance in CRC organoid-stroma co-cultures” (2024).

Assays:
Format in all cases: functional, Homo sapiens
Details in all cases: Homo sapiens, read-out: Cell Viability; for viability at 10 µM: Concentration 10 uM; for viability at 1 µM: Concentration 1 uM
[1] = system: Colon cancer organoid; experiment: Targeting of F14 CAF-induced therapy resistance in O14 CRC organoid-stroma co-culture. Cell viability is reported with Gefitinib.
[2] = system: Colon cancer organoid; experiment: Targeting of F14 CAF-induced therapy resistance in O23 CRC organoid-stroma co-culture. Cell viability is reported without Gefitinib.
[3] = system: Colon cancer organoid; experiment: Targeting of F14 CAF-induced therapy resistance in O23 CRC organoid-stroma co-culture. Cell viability is reported with SN-38.
[4] = system: Colon cancer organoid; experiment: Targeting of F14 CAF-induced therapy resistance in O14 CRC organoid-stroma co-culture. Cell viability is reported without Gefitinib.
[5] = system: Colon cancer organoid; experiment: Targeting of F14 CAF-induced therapy resistance in O23 CRC organoid-stroma co-culture. Cell viability is reported with Gefitinib.

SMILES | viability at 10 µM [1] | viability at 10 µM [2] | viability at 10 µM [3] | viability at 10 µM [4] | viability at 10 µM [5] | viability at 1 µM [1] | viability at 1 µM [2] | viability at 1 µM [3] | viability at 1 µM [4] | viability at 1 µM [5]
Cn1c(-c2csc(C3CCN(CC4=NC5N=CC=CC5N4)CC3)n2)nc2ccccc21 (stereo not given) [BAY-070] | 44.6% | 136% | 105% | 90.7% | 73.4% | – | – | – | – | –
NS(=O)(=O)c1cc(NC(=O)C2(c3ccccc3Cl)CC2)ccc1Oc1cccc(Cl)c1 [BAY-207] | 34.8% | 78.6% | 61% | 86.8% | 42.5% | – | – | – | – | –
CNCc1ccccc1-c1csc([C@@H](C)Nc2nc(C)nc3cc(OC)c(OC)cc23)c1 [BAY-293] | 16.6% | 69.8% | 50.2% | 64% | 35% | – | – | – | – | –
CNCc1ccccc1-c1csc([C@H](C)Nc2nc(C)nc3cc(OC)c(OC)cc23)c1 [BAY-294] | – | – | – | – | – | 66.5% | 137% | 89% | 102% | 46.4%
Cc1cc(NC(=O)c2cccc(S(F)(F)(F)(F)F)c2)cc(-n2ccn3nc(-c4cccnc4)cc23)c1 [BAY-309] | 49.9% | 159% | 61.2% | 87.3% | 65% | – | – | – | – | –
O=C(N1CCS(=O)(=O)CC1)N1C[C@H](c2ccc(OC(F)(F)F)cc2)C[C@H](c2nc(C3CC3)no2)C1 [BAY-386] | 53.2% | 120% | 74.8% | 103% | 55.9% | – | – | – | – | –
O[C@]1(C(F)(F)F)CCCC[C@H]1Nc1ccc(F)cc1 [BAY-390] | – | – | – | – | – | 34% | 153% | 51% | 92.1% | 64.2%
Cc1c(N2CCNCC2)nc2ccc(Br)cc2c1C(=O)NC[C@H](CCC(=O)O)c1ccccc1Cl [BAY-403] | 29.6% | 60.5% | 87.2% | 85.5% | 48% | – | – | – | – | –
CN(C)c1ncnc(-c2ccc3nc(Nc4cc(CN5CCN(C(=O)CC(F)(F)F)CC5)ccn4)[nH]c3c2)c1Cl [BAY-440] | 68.9% | 160% | 92.8% | 114% | 78.1% | – | – | – | – | –
Cc1noc([C@H]2C[C@@H](c3ccc(C(F)(F)F)cc3)CN(C(=O)N3CCS(=O)(=O)C3)C2)n1 [BAY-448] | 49% | 124% | 95.1% | 99.7% | 58% | – | – | – | – | –
CC1=C(C#N)C(c2ccc3[nH]nc(C)c3c2)C(C#N)=C(C)N1 [BAY-474] | 7.78% | 115% | 81.4% | 90.1% | 22.9% | – | – | – | – | –
Cc1c[nH]c2nccc(Oc3c(F)cc(Nc4cc(Cl)nc(N)n4)cc3F)c12 [BAY-549] | – | – | – | – | – | 30.6% | 124% | 74.7% | 96.4% | 62.9%
Cc1c(NC(=O)c2cc(C(N)=O)nc3cc(F)ccc23)c(C(F)(F)F)nn1Cc1ccc(C(C)(C)C)cc1 [BAY-588] | – | – | – | – | – | 31.3% | 111% | 104% | 45.5% | 43.1%
CC(=O)C1=C(C)N(c2cccc(C(F)(F)F)c2)C(=O)N[C@H]1c1ccc(C#N)nc1 [BAY-677] | 57.5% | 93.5% | 75% | 107% | 51.7% | – | – | – | – | –
CC(=O)C1=C(C)N(c2cccc(C(F)(F)F)c2)C(=O)N[C@@H]1c1ccc(C#N)nc1 [BAY-678] | 41.2% | 108% | 75.6% | 103% | 61.8% | – | – | – | – | –
Cc1nc(C2CCN(C(=O)c3ccc(OC(F)(F)F)cc3N)CC2)c2ncc(N3CCN(C)CC3)cc2n1 [BAY-693] | 32.1% | 119% | 53.6% | 76.4% | 46.5% | – | – | – | – | –
O=C(O)[C@@H]1[C@@H](Cn2nnc3ccccc3c2=O)CC[C@H]1C(=O)c1ccc(OCCC2CCOCC2)cc1 [BAY-694] | 56% | 146% | 78.7% | 102% | 53% | – | – | – | – | –
O=C(NCc1ncc(C(F)(F)F)cc1Cl)c1ccc2c(c1)C1(CCS(=O)(=O)CC1)[C@H](C1CC1)N2S(=O)(=O)c1ccc(F)cc1 [BAY-784] | – | – | – | – | – | 55.8% | 157% | 127% | 129% | 74.1%
O=C(NCc1ncc(C(F)(F)F)cc1Cl)c1ccc2c(c1)C1(CCS(=O)(=O)CC1)[C@@H](C1CC1)N2S(=O)(=O)c1ccc(F)cc1 [BAY-786] | 53% | 138% | 106% | 115% | 61.5% | – | – | – | – | –
